According to patent US11401264B2, “Heterocyclic compound” (Orizuru Therapeutics, Inc., priority 2018, dated 2022):

System: cardiomyocytes from human iPS cell lines 409B2
Assay: Experimental Example 4: membrane potential analysis (FluoVolt), beats per minute
Format: cell-based
Details: treated from 25th day, measured on 28th day; n = 3; DMSO control 70.7
Procedure: For analysis of electrophysiological function of cardiomyocytes, humans iPS cell lines 409B2 (prepared from episomal vector (pCXLE-hOCT3/4-shp53-F, pCXLE-hSK, pCXLE-hUL) using HDF1388 purchased from Cell Applications, Inc (reference literature; Okita et al., Nat Methods. 8(5):409-12. (2011))) were used.
The maintenance culture of the above-mentioned iPS cell lines was carried out by a conventional method (Takahashi K, et al. Cell. 131: 861-72, 2007 and Nakagawa M, et al. Nat Biotechnol. 26: 101-6, 2008).
For differentiation induction into cardiomyocytes, the iPS cell lines were treated with CTK solution (ReproCELL) for 2 minutes, the solution was removed, and then the iPS cell lines were treated with Accumax (Innovative Cell Technologies) for 5 minutes, and the cells were dissociated into the single cell by pipetting. The cells were collected by centrifugation (1,000 rpm, 5 min), and seeded on low attachment 96 well dish (Corning) by 5000 cells/70 μL/well, and cultured in a medium prepared by adding 1% L-glutamine, transferrin 150 μg/mL, ascorbic acid 50 μg/mL (Sigma), monothioglycerol 4×10^−4 M, 10 μM Rock inhibitor (Y-27632), 2 ng/mL BMP4 (R&D) and 0.5% Matrigel (Growth Factor Reduced) to StemPro-34 SFM (ThermoFisher) at 37° C., under 5% oxygen condition to form embryoid bodies (0 day). […]

Compound: O=C1c2ccc(N3CCOCC3)cc2CN1c1ccc2[nH]c(-c3ccc(Br)cc3)nc2c1 [Example 8, 2-(2-(4-bromophenyl)-1H-benzimidazol-5-yl)-5-(morpholin-4-yl)isoindolin-1-one]
- beats (mean): 32.0 beats per minute
